Data: patent publication US20100280975A1, “SYSTEMS FOR CLINICAL TRIALS” (WisTa Laboratories Ltd., priority 2007, published 2010)
Where “and” joins values, the source holds several entries; their conditions need not be identical. Identical values can stand only once.

Experiments:
[1] = system: mild and moderate dementia of the Alzheimer type; assay: rember™ Phase 2 study: ADAS-cog change over 24 weeks; conditions: for Estimate, change in ADAS-cog score vs intercept (placebo), linear mixed effects / Estimate, change in ADAS-cog score vs intercept (placebo), linear least squares: without interaction term; for Estimate, change in ADAS-cog score vs intercept, linear least squares / Estimate, change in ADAS-cog score vs intercept, linear mixed effects: with interaction term
[2] = system: mild and moderate dementia of the Alzheimer type; assay: rember™ study: ADAS-cog change over 50 weeks, linear imputation for fit-survivor bias; type: in vivo, human; conditions: for Estimated change from baseline, Least Exposed Dose comparator method / Estimated effect size, Least Exposed Dose comparator method: 50 weeks; for Estimated effect size, Least Exposed Dose comparator method: vs placebo-low arm; for Effect size inferred from least-squares analysis at 50 weeks / Effect size inferred from mixed effects analysis at 50 weeks: vs inferred placebo
Excerpt: A method has been developed by the inventors which has not been described previously which permits unbiased correction for the fit-survivor phenomenon. […] If a patient who was CDR-moderate at baseline discontinued medication at some time after 24 weeks, a straight line is fitted to the graph of available ADAS-cog change scores against visit-date for the available data for each subject. The line was not forced to pass through zero, to allow for placebo effect, and because the first visit is subject to random fluctuations. The use of a straight-line fit per-subject is supported by the large studies of Stern et al., (1994), Doraiswamy et al., (2001) and Winblad, B., Wimo, A., Engedal, K., Soininen, H., Verhey, F., Waldemar, G., Wetterholm, A. L., Haglund, A., Zhang, R., Schindler, R. (2006) 3-year study of donepezil therapy in Alzheimer's disease: effects of early and continuous therapy. […] The same approach can be applied to other outcome measures for which there were assessments scheduled after 24 weeks.
Subjects originally randomized to placebo were switched to the low (100 mg) dose bd after 24 weeks. This is referred to as the “placebo-low” treatment arm.
In this chart, the labelling conventions of “placlow” refers to subjects randomised to placebo and changed to low (100 mg) bd after 24 weeks, “low” refers to low (100 mg) dose tid, “30 mg” refers to 30 mg dose tid and “60 mg” refers to 60 mg dose tid.

[3] = system: CDR-moderate subjects; assay: rember™ study: NPI (Neuropsychiatric Inventory) over 50 weeks; type: in vivo, human; conditions: vs placebo-low arm
[4] = ITT/LOCF, week 24, low (100 mg) tid
[5] = ITT/OC, CDR-moderates, mixed-effects model, low (100 mg) tid
[6] = ITT/OC, week 24, CDR-mild, 30 mg tid
[7] = ITT/OC, week 24, CDR-mild, 60 mg tid
[8] = ITT/OC, week 24, CDR-mild, low (100 mg) tid
[9] = ITT/OC, week 24, CDR-moderate, 30 mg tid
[10] = ITT/OC, week 24, CDR-moderate, 60 mg tid
[11] = ITT/OC, week 24, CDR-moderate, low (100 mg) tid
[12] = ITT/OC, week 24, low (100 mg) tid

CN(C)c1ccc2nc3ccc(=[N+](C)C)cc-3sc2c1 [rember™, methylthioninium chloride]
Estimate, change in ADAS-cog score vs intercept (placebo), linear mixed effects ([1]; ITT/LOCF, week 24, 30 mg tid): 0.04 ADAS-cog units
Estimate, change in ADAS-cog score vs intercept (placebo), linear least squares ([1]; ITT/LOCF, week 24, 60 mg tid): −1.18 ADAS-cog units
Estimate, change in ADAS-cog score vs intercept (placebo), linear mixed effects ([1]; ITT/LOCF, week 24, 60 mg tid): −1.18 ADAS-cog units
Estimate, change in ADAS-cog score vs intercept (placebo), linear least squares [1, 4]: −0.03 ADAS-cog units
Estimate, change in ADAS-cog score vs intercept (placebo), linear mixed effects [1, 4]: −0.03 ADAS-cog units
ADAS-cog change from baseline at 24 weeks ([1]; ITT/OC, CDR-moderates, mixed-effects model, 30 mg tid): 1.03 ADAS-cog units
ADAS-cog change from baseline at 24 weeks ([1]; ITT/OC, CDR-moderates, mixed-effects model, 60 mg tid): −0.36 ADAS-cog units
ADAS-cog change from baseline at 24 weeks [1, 5]: 4.6 ADAS-cog units and 4.63 ADAS-cog units
ADAS-cog effect size at 24 weeks (vs placebo) [1, 5]: −0.42 ADAS-cog units
Estimate, change in ADAS-cog score vs intercept, linear least squares [1, 6]: 0.43 ADAS-cog units
Estimate, change in ADAS-cog score vs intercept, linear mixed effects [1, 6]: 0.33 ADAS-cog units
Estimate, change in ADAS-cog score vs intercept, linear least squares [1, 7]: −0.66 ADAS-cog units
Estimate, change in ADAS-cog score vs intercept, linear mixed effects [1, 7]: −0.77 ADAS-cog units
Estimate, change in ADAS-cog score vs intercept, linear least squares [1, 8]: −0.05 ADAS-cog units
Estimate, change in ADAS-cog score vs intercept, linear mixed effects [1, 8]: −0.21 ADAS-cog units
Estimate, change in ADAS-cog score vs intercept, linear least squares [1, 9]: 1.11 ADAS-cog units
Estimate, change in ADAS-cog score vs intercept, linear mixed effects [1, 9]: −1.09 ADAS-cog units
Estimate, change in ADAS-cog score vs intercept, linear least squares [1, 10]: −2.74 ADAS-cog units
Estimate, change in ADAS-cog score vs intercept, linear mixed effects [1, 10]: −3.23 ADAS-cog units
Estimate, change in ADAS-cog score vs intercept, linear least squares [1, 11]: 0.99 ADAS-cog units
Estimate, change in ADAS-cog score vs intercept, linear mixed effects [1, 11]: 1.13 ADAS-cog units
Estimate, change in ADAS-cog score vs intercept (placebo), linear least squares ([1]; ITT/OC, week 24, 30 mg tid): 0.00 ADAS-cog units
Estimate, change in ADAS-cog score vs intercept (placebo), linear mixed effects ([1]; ITT/OC, week 24, 30 mg tid): −0.07 ADAS-cog units
Estimate, change in ADAS-cog score vs intercept (placebo), linear least squares ([1]; ITT/OC, week 24, 60 mg tid): −0.95 ADAS-cog units
Estimate, change in ADAS-cog score vs intercept (placebo), linear mixed effects ([1]; ITT/OC, week 24, 60 mg tid): −1.13 ADAS-cog units
Estimate, change in ADAS-cog score vs intercept (placebo), linear least squares [1, 12]: 0.08 ADAS-cog units
Estimate, change in ADAS-cog score vs intercept (placebo), linear mixed effects [1, 12]: −0.04 ADAS-cog units
mean effect sizes in moderate subjects over 24 weeks ([1]; severity as interaction term, CDR-moderate, 60 mg dose): −2.7 to −3.7 ADAS-cog units
initial symptomatic improvement at 15 weeks, ADAS-cog ([2]; 60 mg dose): 1.6 ADAS-cog units
subjects improved or stayed the same on the ADAS-cog scale at 50 weeks ([2]; 60 mg tid): about 60%
Estimated change from baseline, Least Exposed Dose comparator method ([2]; 30 mg tid): 3.95 ADAS-cog units
Estimated change from baseline, Least Exposed Dose comparator method ([2]; low (100 mg) tid): 4.00 ADAS-cog units
Estimated effect size, Least Exposed Dose comparator method ([2]; 30 mg tid): −2.80 ADAS-cog units
Estimated effect size, Least Exposed Dose comparator method ([2]; 60 mg tid): −5.71 ADAS-cog units
Estimated effect size, Least Exposed Dose comparator method ([2]; low (100 mg) tid): −2.76 ADAS-cog units
Effect size inferred from least-squares analysis at 50 weeks ([2]; 30 mg tid): −4.37 ADAS-cog units
Effect size inferred from mixed effects analysis at 50 weeks ([2]; 30 mg tid): −3.87 ADAS-cog units
Effect size inferred from least-squares analysis at 50 weeks ([2]; 60 mg tid): −6.50 ADAS-cog units
Effect size inferred from least-squares analysis at 50 weeks ([2]; low (100 mg) tid): −3.59 ADAS-cog units
Effect size inferred from mixed effects analysis at 50 weeks ([2]; low (100 mg) tid): −4.04 ADAS-cog units
NPI carer-distress scale, best effect size over 50 weeks [3]: −4.6 units
NPI patient-disturbance scale, best effect size over 50 weeks [3]: −9.2 units
